Test results from patent US20250129122A1, “PEPTIDE, AND CELL FUSION AGENT AND PHARMACEUTICAL COMPOSITION FOR CANCER THERAPY CONTAINING SAID PEPTIDE” (priority 2021, published 2025).

Key:
HVJ virus (Sendai virus) = test: Virus envelope fusion, electron micrograph
Text: In this example, peptide 16 was applied to the HVJ virus (Sendai virus), and its ability to fuse with the virus was examined.

RFL cells = test: Apoptosis induction, Caspase-3/7 activity (IncuCyte S3 live cell analysis); type: cell-based, rat; conditions: 0.06 μg/mL, scanned every hour for 3 days, untreated control did not increase
Method: (§1) In this Example, the apoptosis ability of peptide 16 was examined using the […] and RM4 cells. An activity of Caspase-3/7 which are indications of apoptosis, was measured using IncuCyte S3 live cell analysis system (Essen BioScience).
(§2) The activity of Caspase-3/7 activity is measured using an inert non-fluorescent (DEVD) substrate that can penetrate the cell membrane. An activated Caspase-3/7 cleaves the substrate, and thereby a DNA-bound green fluorescent label is released. The activity of Caspase-3/7 is measured by the intensity of green fluorescence.
(§3) RFL cells or RM4 cells were seeded on 96-well plates and 0.06 μg/mL of peptide 16 was added thereto. Caspase-3/7 Green Reagent (Unit size: 20 ul, 5 mM/vial) was diluted 500-fold with Ham's F-12K and added thereto.
(§4) They were measured using the IncuCyte S3 live cell analysis system, by continuously scanning every hour for 3 days with an objective lens of magnification of 10 times and 4 fields of view. As a control, RFL cells or RM-4 cells which were not treated with peptide 16, were used.

[1] = tested on: A549 cells (human alveolar epithelial adenocarcinoma cells); test: In vivo anticancer effect on A549 tumor transplanted in nude mice; set-up: species or system mouse; conditions: A549 subcutaneous, 18.75 mg/kg or 37.5 mg/kg intravenously two times/week during 5 weeks, autopsy 35 days after implantation
Method: In this example, the anticancer effect of peptide 16 on A549 cells (human alveolar epithelial adenocarcinoma cells) was examined in vivo.
CAnN.Cg-Foxn1nu/CrlCrlj nude mice were divided into groups of 6 animals each. A549 cells were suspended in PBS at a concentration of 1×10^8 cells/mL and 0.1 mL thereof were transplanted subcutaneously to the right ventral part thereof. The peptide 16 was administered intravenously from the tail vein at a dose of 18.75 mg/kg or 37.5 mg/kg (peptide 16 group-1, or peptide 16 group-2) on two times/week during 5 weeks after tumor transplantation. Control group was administered PBS only.
Autopsy was performed 35 days after tumor implantation, and the tumor was removed. FIGS. 13A (×100) and B (×400) are the photographs of tumor masses of A549 cells treated with peptide 16, and FIGS. 13C (×100) and D (×400) are the controls.

RM4 cells = test: Apoptosis induction, Caspase-3/7 activity (IncuCyte S3 live cell analysis); type: cell-based; conditions: 0.06 μg/mL, scanned every hour for 3 days, untreated control did not increase
Method: as §1, §2, §3, §4

CH3-Pro-Ile-Val-Ser-Thr-Gln-Thr-Ala-Leu-Ala-miniPEG-D-Lys-D-Lys-D-Lys-NH2 [peptide 16]
fusion of the virus envelope (HVJ virus (Sendai virus)): Fusion of the envelope of the HVJ virus was observed
activity of Caspase-3/7 (RFL cells): the activity increased rapidly between 10 and 20 hours
antitumor effect, HE-stained excised tumor [1]: the inside of the tumor is necrotic
activity of Caspase-3/7 (RM4 cells): the activity increased rapidly between 10 and 20 hours
